Experimental data reported in patent publication US20100172854A1, “ANTIBACTERIAL FORMULATIONS” (priority 2007, published 2010).

Legend:
Assay in all cases: MIC assay
Type in all cases: cell-based
[1] = tested on: S. aureus ATCC 12604; conditions: Staphylococcus aureus, ATCC12604
Procedure: (§1) The staphylococci were cultured and maintained on Mueller-Hinton Medium (agar and broth) at pH 7.2; cultures were incubated aerobically at 37° C. for 19-20 hours.
(§2) This is a standard international method for quantitatively assessing the antimicrobial activity of a compound in a liquid medium. The method used a sterile 96-well microtitre plate, capable of holding about 200 μl of liquid per well. The wells contained liquid culture medium and ranges of decreasing concentrations of the relevant test compound in doubling dilutions (e.g. 1000, 500, 250, 125 . . . μg/ml, etc. down to 0.49 μg/ml). The culture media were as described above.
(§3) The wells were inoculated with a liquid suspension of freshly grown micro-organism and incubated under the conditions described above. After incubation, the microtitre plate was examined visually (with the aid of a light box) for cloudiness in each well, which would indicate microbial growth. The MIC value was recorded as the lowest concentration of test compound required to inhibit microbial growth, i.e. the lowest concentration for which the liquid in the well remained clear.
(§4) The assays included both negative (culture medium with no micro-organisms) and positive (culture medium plus diluting solvent plus micro-organism) controls.

[2] = tested on: S. aureus CPHL EMRSA 17; conditions: Staphylococcus aureus
Procedure: as §1, §2, §3, §4

[3] = tested on: S. aureus CPHL GISA HO41340156; conditions: Staphylococcus aureus
Procedure: as §1, §2, §3, §4

[4] = tested on: S. epidermidis NCTC 11047; conditions: Staphylococcus epidermidis, NCTC11047
Procedure: as §1, §2, §3, §4

[5] = tested on: S. aureus ATCC 12605; conditions: Staphylococcus aureus, ATCC12605
Procedure: as §1, §2, §3, §4

[6] = tested on: S. aureus ATCC 12600-U; conditions: Staphylococcus aureus, ATCC12600
Procedure: as §1, §2, §3, §4

[7] = tested on: S. aureus ATCC 12607; conditions: Staphylococcus aureus, ATCC12607
Procedure: as §1, §2, §3, §4

[8] = tested on: Staphylococcus warneri ATCC 27836; conditions: ATCC27836
Procedure: as §1, §2, §3, §4

[9] = tested on: Staphylococcus aureus ATCC 29213; conditions: ATCC29213, S. aureus ATCC 29213
Procedure: as §1, §2, §3, §4

[10] = tested on: S. aureus NCTC 12493; conditions: Staphylococcus aureus, NCTC12493, resistance phenotype Met
Procedure: as §1, §2, §3, §4

[11] = tested on: Staphylococcus cohnii ATCC 29974; conditions: ATCC29974
Procedure: as §1, §2, §3, §4

[12] = tested on: S. saprophyticus NCTC 7292; conditions: Staphylococcus saprophyticus, NCTC7292
Procedure: as §1, §2, §3, §4

[13] = tested on: Staphylococcus capitis ATCC 27840; conditions: ATCC27840
Procedure: as §1, §2, §3, §4

[14] = tested on: Staphylococcus aureus ATCC 12600; conditions: ATCC12600
Procedure: as §1, §2, §3, §4

[15] = tested on: S. aureus CPHL VISA Mu50; conditions: Staphylococcus aureus, resistance phenotype Van (intermediate)
Procedure: as §1, §2, §3, §4

[16] = tested on: Staphylococcus xylosus ATCC 29971; conditions: ATCC29971
Procedure: as §1, §2, §3, §4

[17] = tested on: S. aureus CPHL EMRSA 15; conditions: Staphylococcus aureus
Procedure: as §1, §2, §3, §4

[18] = tested on: S. aureus ATCC 12606; conditions: Staphylococcus aureus, ATCC12606
Procedure: as §1, §2, §3, §4

Measured: MIC

Cc1cc(Cc2cc(C)cc(C(C)(C)C)c2O)c(O)c(C(C)(C)C)c1 [AO 2246, 2,2′-methylene-bis(4-methyl-6-tert-butylphenol)]
0.98 µg/mL: [6] | [10] | [14] | [15]
15.6 µg/mL: [8]
3.9 µg/mL: [4] | [9] | [11] | [12] | [13] | [16]
1.95 µg/mL: all other assays above
